Measured values: US11787785B2 (NOVARTIS AG, priority 2021, dated 2023)

Target: T1, WIZ protein (HiBit-WIZ fusion protein) (Homo sapiens, UniProt O95785+Q96SW2)
T1 construct: expressed in transfected cells
Assay: Quantification of WIZ protein levels in HiBit tag fusion protein assay (WIZ HiBit assay in 293T cells)
Format: cell-based
Conditions: for Dmax at 25 µM / remaining activity at 25 µM: HEK-293T; for Dmax at 25 µM / % degradation of WIZ (100 − Amax): 100 − Amax, at 25 uM; for Dmax at 25 µM / remaining activity at 25 µM / % degradation of WIZ (100 − Amax) / WIZ Amax: 293T cells; for Dmax at 25 µM: read-out: % degradation of WIZ (100 − Amax); for remaining activity at 25 µM / WIZ Amax: DMSO-normalized, curve-fitted percentage of WIZ-HiBit remaining at 25 uM; for remaining activity at 25 µM: read-out: WIZ Amax; for DC50: WIZ HiBit assay in 293T cells, 10-point, 5-fold dose response, highest concentration 25 μM, about 18 hours, read-out: WIZ AC50
Procedure: The HiBit system from Promega was used to develop high-throughput and quantitative assays to measure changes in WIZ protein levels in response to compounds. The HiBit tag was derived from a split Nanoluciferase and has the following protein sequence: […] (SEQ ID NO: 1). The complementary fragment of Nanoluciferase (known as LgBit, from Promega), was added to the HiBit tag to form an active Nanoluciferase enzyme whose activity can be precisely measured. In this way, the levels of a fusion protein with the HiBit tag can be quantified in cell lysates.
Lentiviral vectors, based on the Invitrogen™ pLenti6.2/V5 DEST backbone were constructed that places the HiBit tag upstream of WIZ and expressed the fusion protein from an HSVTK promotor.
To ensure moderate and consistent expression of the HiBit-WIZ fusion protein across all cells in the population, stable cell lines were constructed from cells harboring a single copy of the construct. Lentivirus packaged with the constructs were made using the ViraPower™ kit from Invitrogen™. 293T cells from ATCC (Catalog number: CRL-3216), were infected with the virus at low multiplicity of infection and selected by 5 μg/mL blasticidin in culture media for 2 weeks.
The levels of HiBit-WIZ tagged fusion proteins in compound-treated cell lines were measured as follows:
On day 1, cells were diluted to 1.0×10^6 cells/ml in normal growth medium. 20 μL of cell suspension were plated in each well of a solid white 384-well plate. Plates were incubated overnight in a 37° C. and 5% CO2 humidified tissue culture incubator.
On day 2, serial dilutions of compounds were made in 384-well plates. Compound plates were set up with DMSO in columns 1, 2, 23, 24, and 10-point compound dilution series in column 3-12 and column 13-22. 10 mM stock solution of compound were placed into column 3 or 13 and a 1:5 serial dilution was carried out until there was a 10-point dilution series per compound. 50 nL of diluted compounds were transferred into the plated cells by Echo® (Labcyte) acoustic transfer. The highest concentration of compound was 25 μM. Plates were incubated overnight (about 18 hours) in a 37° C. and 5% CO2 humidified tissue culture incubator.
On day 3, plates were removed from the incubator and allowed to equilibrate at room temperature for 60 minutes. HiBit substrate (Nano-Glo® HiBit Lytic Detection System, Promega Catalogue number: N3050) was added as described by the manufacturers protocols. Plates were incubated at room temperature for 30 minutes and luminescence was read using an EnVision® reader (PerkinElmer®). Data was analyzed and visualized using the Spotfire® software package.
WIZ Degradation Activity of Compounds (Table 1)
WIZ Amax reflects the DMSO-normalized, curve-fitted percentage of WIZ-HiBit remaining at 25 uM. It was calculated by normalizing […] controls to 100%, parametric curve fitting of the dose response data (10-point, 5-fold), followed by calculation of response at 25 uM using the fitted equation (nd=not determined).

T1 sequence (O95785 whole entry, the tested form may be a part): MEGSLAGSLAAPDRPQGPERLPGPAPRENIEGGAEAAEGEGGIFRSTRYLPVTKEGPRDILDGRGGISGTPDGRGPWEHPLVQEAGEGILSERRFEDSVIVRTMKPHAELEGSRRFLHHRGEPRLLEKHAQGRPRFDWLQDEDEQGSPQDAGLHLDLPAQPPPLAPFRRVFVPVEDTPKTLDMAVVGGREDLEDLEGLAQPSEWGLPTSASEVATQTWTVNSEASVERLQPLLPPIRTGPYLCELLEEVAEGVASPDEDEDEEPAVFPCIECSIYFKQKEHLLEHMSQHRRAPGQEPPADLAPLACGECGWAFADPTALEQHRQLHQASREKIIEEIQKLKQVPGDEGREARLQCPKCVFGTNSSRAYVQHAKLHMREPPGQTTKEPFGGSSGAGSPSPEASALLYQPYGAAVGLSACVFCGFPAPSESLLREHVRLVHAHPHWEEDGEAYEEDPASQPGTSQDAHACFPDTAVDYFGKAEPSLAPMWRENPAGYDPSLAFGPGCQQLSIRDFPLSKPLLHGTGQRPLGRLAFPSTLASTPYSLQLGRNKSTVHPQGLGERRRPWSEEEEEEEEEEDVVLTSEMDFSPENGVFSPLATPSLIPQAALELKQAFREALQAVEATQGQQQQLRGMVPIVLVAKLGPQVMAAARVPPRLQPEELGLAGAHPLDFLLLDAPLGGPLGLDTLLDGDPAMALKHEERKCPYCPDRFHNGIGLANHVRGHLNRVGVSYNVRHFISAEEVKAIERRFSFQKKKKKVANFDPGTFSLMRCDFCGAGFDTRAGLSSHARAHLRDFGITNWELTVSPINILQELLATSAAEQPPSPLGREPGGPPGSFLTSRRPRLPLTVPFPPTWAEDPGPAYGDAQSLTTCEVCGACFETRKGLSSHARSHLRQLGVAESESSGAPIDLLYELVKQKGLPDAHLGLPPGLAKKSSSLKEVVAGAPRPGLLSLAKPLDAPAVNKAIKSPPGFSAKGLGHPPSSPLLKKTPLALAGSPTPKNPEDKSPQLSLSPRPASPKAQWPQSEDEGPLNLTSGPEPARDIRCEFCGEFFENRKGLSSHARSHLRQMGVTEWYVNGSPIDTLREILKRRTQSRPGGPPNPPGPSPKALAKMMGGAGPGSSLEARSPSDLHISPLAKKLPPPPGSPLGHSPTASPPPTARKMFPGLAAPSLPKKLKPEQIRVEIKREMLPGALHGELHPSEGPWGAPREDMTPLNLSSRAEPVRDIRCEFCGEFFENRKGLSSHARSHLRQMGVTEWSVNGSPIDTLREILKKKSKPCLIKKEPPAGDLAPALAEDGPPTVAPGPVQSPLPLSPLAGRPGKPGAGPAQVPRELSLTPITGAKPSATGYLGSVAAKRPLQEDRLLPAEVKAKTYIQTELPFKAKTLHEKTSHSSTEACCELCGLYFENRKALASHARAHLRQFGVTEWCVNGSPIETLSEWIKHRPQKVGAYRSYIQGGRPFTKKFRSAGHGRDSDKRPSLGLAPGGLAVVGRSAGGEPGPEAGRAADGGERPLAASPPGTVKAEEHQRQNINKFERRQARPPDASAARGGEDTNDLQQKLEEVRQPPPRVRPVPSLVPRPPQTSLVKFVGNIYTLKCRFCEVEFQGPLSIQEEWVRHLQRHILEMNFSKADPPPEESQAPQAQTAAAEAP
T1 sequence (Q96SW2 whole entry, the tested form may be a part): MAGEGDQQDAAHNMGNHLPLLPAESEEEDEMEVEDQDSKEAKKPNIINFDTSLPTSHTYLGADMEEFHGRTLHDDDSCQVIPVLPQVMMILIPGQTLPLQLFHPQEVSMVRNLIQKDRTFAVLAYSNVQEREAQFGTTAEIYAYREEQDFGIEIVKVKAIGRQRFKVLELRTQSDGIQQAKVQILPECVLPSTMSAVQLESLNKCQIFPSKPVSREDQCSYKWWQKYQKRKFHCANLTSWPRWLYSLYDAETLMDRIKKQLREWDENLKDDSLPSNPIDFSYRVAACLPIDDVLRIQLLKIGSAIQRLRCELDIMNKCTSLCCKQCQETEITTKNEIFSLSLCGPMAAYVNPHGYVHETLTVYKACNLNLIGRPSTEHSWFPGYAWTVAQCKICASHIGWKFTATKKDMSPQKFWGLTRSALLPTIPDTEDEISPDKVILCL
T1 sequence (Q16531 whole entry partner, the tested form may be a part): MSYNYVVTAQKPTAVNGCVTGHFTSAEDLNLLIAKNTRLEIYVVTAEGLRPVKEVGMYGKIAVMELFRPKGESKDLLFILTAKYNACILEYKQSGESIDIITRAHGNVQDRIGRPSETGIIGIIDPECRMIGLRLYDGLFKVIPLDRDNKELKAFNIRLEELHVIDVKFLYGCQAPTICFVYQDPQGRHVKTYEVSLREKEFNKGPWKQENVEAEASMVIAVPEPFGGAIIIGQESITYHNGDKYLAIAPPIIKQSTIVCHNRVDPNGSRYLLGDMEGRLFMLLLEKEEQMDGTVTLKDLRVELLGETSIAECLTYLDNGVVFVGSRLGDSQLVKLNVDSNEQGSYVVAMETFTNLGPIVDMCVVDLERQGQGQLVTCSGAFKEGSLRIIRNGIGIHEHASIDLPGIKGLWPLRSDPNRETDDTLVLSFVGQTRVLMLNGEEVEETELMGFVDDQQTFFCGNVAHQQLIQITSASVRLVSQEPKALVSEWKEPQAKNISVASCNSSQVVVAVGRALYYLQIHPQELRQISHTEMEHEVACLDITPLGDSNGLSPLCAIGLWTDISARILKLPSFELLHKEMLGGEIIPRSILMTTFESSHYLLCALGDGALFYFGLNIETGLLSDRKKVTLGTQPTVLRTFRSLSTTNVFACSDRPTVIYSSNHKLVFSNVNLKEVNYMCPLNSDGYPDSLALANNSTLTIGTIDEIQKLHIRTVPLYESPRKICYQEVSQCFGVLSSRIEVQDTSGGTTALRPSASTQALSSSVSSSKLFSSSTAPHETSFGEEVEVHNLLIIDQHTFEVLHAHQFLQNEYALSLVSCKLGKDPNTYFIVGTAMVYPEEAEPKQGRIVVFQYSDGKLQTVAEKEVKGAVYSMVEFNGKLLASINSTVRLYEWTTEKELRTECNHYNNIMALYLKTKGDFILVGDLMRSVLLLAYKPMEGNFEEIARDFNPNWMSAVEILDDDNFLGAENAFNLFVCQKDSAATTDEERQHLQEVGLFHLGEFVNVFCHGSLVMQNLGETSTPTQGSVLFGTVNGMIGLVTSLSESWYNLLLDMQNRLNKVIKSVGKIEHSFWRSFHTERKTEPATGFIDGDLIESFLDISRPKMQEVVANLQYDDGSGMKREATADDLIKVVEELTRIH

Dmax at 25 µM [%] | remaining activity at 25 µM [%] | DC50 [µM] | % degradation of WIZ (100 − Amax) [%] | WIZ Amax [%] | Compound
44 | 56 | 0.37 | – | – | CC(C)CN1CC[C@H](Cc2ccn3ncc(N4CCC(=O)NC4=O)c3c2)C[C@@H]1C(F)(F)F (relative stereo) [Example 312, (cis)-1-(5-((1-isobutyl-2-(trifluoromethyl)piperidin-4-yl)methyl)pyrazolo[1,5-a]pyridin-3-yl)dihydropyrimidine-2,4(1H,3H)-dione]
85 | 15 | 0.007 | – | – | C[C@H]1C[C@@H](Cc2ccn3ncc(N4CCC(=O)NC4=O)c3c2)CCN1CC1CCCCC1 (single isomer, unassigned) [Example 71]
77 | 23 | 0.044 | – | – | C[C@H]1CC(F)(Cc2ccn3ncc(N4CCC(=O)NC4=O)c3c2)CCN1CC1CCC(F)(F)CC1 (single isomer, unassigned) [Example 308]
– | – | 0.056 | 62 | 38 | C[C@H]1CC(F)(Cc2ccn3ncc(N4CCC(=O)NC4=O)c3c2)CCN1CC1CCC(F)(F)CC1 (single isomer, unassigned) [Example 309]
73 | 27 | 0.15 | – | – | C[C@H]1CC(F)(Cc2ccn3ncc(N4CCC(=O)NC4=O)c3c2)CCN1C1COC1 (single isomer, unassigned) [Example 310]
– | – | 0.31 | 78 | 22 | C[C@H]1CC(F)(Cc2ccn3ncc(N4CCC(=O)NC4=O)c3c2)CCN1C1COC1 (single isomer, unassigned) [Example 311]
91 | 9 | 0.02 | – | – | O=C1CCN(c2cnn3ccc(CC4CCN(CC5CCCCC5)CC4)cc23)C(=O)N1 [Example 1, 1-(5-((1-(cyclohexylmethyl)piperidin-4-yl)methyl)pyrazolo[1,5-a]pyridin-3-yl)dihydropyrimidine-2,4(1H,3H)-dione]
91 | 9 | 0.023 | – | – | O=C1CCN(c2cnn3ccc(CC4CCN(CC5CCCC5)CC4)cc23)C(=O)N1 [Example 2, 1-(5-((1-(cyclopentylmethyl)piperidin-4-yl)methyl)pyrazolo[1,5-a]pyridin-3-yl)dihydropyrimidine-2,4(1H,3H)-dione]
90 | 10 | 0.02 | – | – | O=C1CCN(c2cnn3ccc(CC4CCN(CC5CCOCC5)CC4)cc23)C(=O)N1 [Example 3, 1-(5-((1-((tetrahydro-2H-pyran-4-yl)methyl)piperidin-4-yl)methyl)pyrazolo[1,5-a]pyridin-3-yl)dihydropyrimidine-2,4(1H,3H)-dione]
90 | 10 | 0.005 | – | – | O=C1CCN(c2cnn3ccc(CC4CCN(CC5CCC(F)(F)CC5)CC4)cc23)C(=O)N1 [Example 4, 1-(5-((1-((4,4-difluorocyclohexyl)methyl)piperidin-4-yl)methyl)pyrazolo[1,5-a]pyridin-3-yl)dihydropyrimidine-2,4(1H,3H)-dione]
89 | 11 | 0.204 | – | – | O=C1CCN(c2cnn3ccc(CC4CCN(CC5CC5)CC4)cc23)C(=O)N1 [Example 5, 1-(5-((1-(cyclopropylmethyl)piperidin-4-yl)methyl)pyrazolo[1,5-a]pyridin-3-yl)dihydropyrimidine-2,4(1H,3H)-dione]
89 | 11 | 0.013 | – | – | O=C1CCN(c2cnn3ccc(CC4CCN(CCC5CCCCC5)CC4)cc23)C(=O)N1 [Example 6, 1-(5-((1-(2-cyclohexylethyl)piperidin-4-yl)methyl)pyrazolo[1,5-a]pyridin-3-yl)dihydropyrimidine-2,4(1H,3H)-dione]
86 | 14 | 0.023 | – | – | O=C1CCN(c2cnn3ccc(CC4CCN(CC5CCCOC5)CC4)cc23)C(=O)N1 (stereo not drawn) [Example 7, 1-(5-((1-((tetrahydro-2H-pyran-3-yl)methyl)piperidin-4-yl)methyl)pyrazolo[1,5-a]pyridin-3-yl)dihydropyrimidine-2,4(1H,3H)-dione]
86 | 14 | 0.008 | – | – | O=C1CCN(c2cnn3ccc(CC4CCN(CC5CCCCCC5)CC4)cc23)C(=O)N1 [Example 8, 1-(5-((1-(cycloheptylmethyl)piperidin-4-yl)methyl)pyrazolo[1,5-a]pyridin-3-yl)dihydropyrimidine-2,4(1H,3H)-dione]
84 | 16 | 0.031 | – | – | CCC(C)CN1CCC(Cc2ccn3ncc(N4CCC(=O)NC4=O)c3c2)CC1 (stereo not drawn) [Example 9, 1-(5-((1-(2-methylbutyl)piperidin-4-yl)methyl)pyrazolo[1,5-a]pyridin-3-yl)dihydropyrimidine-2,4(1H,3H)-dione]
84 | 16 | 0.004 | – | – | CC(CN1CCC(Cc2ccn3ncc(N4CCC(=O)NC4=O)c3c2)CC1)C1CCCCC1 (stereo not drawn) [Example 10, 1-(5-((1-(2-cyclohexylpropyl)piperidin-4-yl)methyl)pyrazolo[1,5-a]pyridin-3-yl)dihydropyrimidine-2,4(1H,3H)-dione]
84 | 16 | 0.055 | – | – | O=C1CCN(c2cnn3ccc(CC4CCN(CCC5CCOCC5)CC4)cc23)C(=O)N1 [Example 11, 1-(5-((1-(2-(tetrahydro-2H-pyran-4-yl)ethyl)piperidin-4-yl)methyl)pyrazolo[1,5-a]pyridin-3-yl)dihydropyrimidine-2,4(1H,3H)-dione]
84 | 16 | 0.051 | – | – | CCCC(CCC)N1CCC(Cc2ccn3ncc(N4CCC(=O)NC4=O)c3c2)CC1 [Example 12, 1-(5-((1-(heptan-4-yl)piperidin-4-yl)methyl)pyrazolo[1,5-a]pyridin-3-yl)dihydropyrimidine-2,4(1H,3H)-dione]
84 | 16 | 0.019 | – | – | O=C1CCN(c2cnn3ccc(CC4CCN(CCC5CCC5)CC4)cc23)C(=O)N1 [Example 13, 1-(5-((1-(2-cyclobutylethyl)piperidin-4yl)methyl)pyrazolo[1,5-a]pyridin-3-yl)dihydropyrimidine-2,4(1H,3H)-dione]
84 | 16 | 0.028 | – | – | O=C1CCN(c2cnn3ccc(CC4CCN(CC5CCOC5)CC4)cc23)C(=O)N1 (stereo not drawn) [Example 14, 1-(5-((1-((tetrahydrofuran-3-yl)methyl)piperidin-4-yl)methyl)pyrazolo[1,5-a]pyridin-3-yl)dihydropyrimidine-2,4(1H,3H)-dione]
71 | 29 | 0.523 | – | – | O=C1CCN(c2cnn3ccc(CC4CCN(CC5CCCO5)CC4)cc23)C(=O)N1 (stereo not drawn) [Example 15, 1-(5-((1-((tetrahydrofuran-2-yl)methyl)piperidin-4-yl)methyl)pyrazolo[1,5-a]pyridin-3-yl)dihydropyrimidine-2,4(1H,3H)-dione]
84 | 16 | 0.018 | – | – | O=C1CCN(c2cnn3ccc(CC4CCN(CCC5CCCC5)CC4)cc23)C(=O)N1 [Example 16, 1-(5-((1-(2-cyclopentylethyl)piperidin-4-yl)methyl)pyrazolo[1,5-a]pyridin-3-yl)dihydropyrimidine-2,4(1H,3H)-dione]
82 | 18 | 0.034 | – | – | O=C1CCN(c2cnn3ccc(CC4CCN(CC5CCC5)CC4)cc23)C(=O)N1 [Example 18, 1-(5-((1-(cyclobutylmethyl)piperidin-4-yl)methyl)pyrazolo[1,5-a]pyridin-3-yl)dihydropyrimidine-2,4(1H,3H)-dione]
